Reference: US20250281496A1, “METHODS OF TREATING NEUROPATHY USING FORETINIB AND COMPOSITIONS THEREOF” (INDIANA UNIVERSITY RESEARCH AND TECHNOLOGY CORPORATION, priority 2022, published 2025)
“Also recorded” adds a separate entry of the source.

What was measured:
[1] = tested on: Rat sympathetic neurons; experiment: NGF withdrawal in compartmented cultures of sympathetic neurons; type: cell-based
Experimental: A) Rat sympathetic neurons grown in compartmented cultures for one week in the presence of NGF were switched into the indicated conditions for 48 h and immunostained for βIII-tubulin (white). Schematics on the left show the configurations used. In the top panels, NGF was maintained in all compartments. In the center and bottom panels, NGF was withdrawn from all compartments. At the bottom panel and 500 nM foretinib (Foret) added to one of the sides and the center compartment. Fluorescence images show βIII-tubulin-positive axons in the sides compartment. At the right, enlarged images of the axons per condition. While the NGF deprived neurons degenerated (axonal beading and degradation in the central panel), Foretinib supplemented (lower panel) axons kept growing Red arrow at the top of the image indicates the distance of the axonal extension during 48 h since NGF withdrawal. Size bar: […].B) MNs were differentiated from healthy human iPS (Line ID 1016A)^62 as described^63. 3 day old MNs were treated with either 1 μM of Thapsigargin (Thaps) or 1 μM Tunicamycin (Tuni) and/or with either 0.5 uM of Foretinib. […] C) Quantitative representation of the results as in B. Error bars represent standard error; *p<0.05; ***p<0.005; t-test. […] E) Quantitative representation of changes in mouse body weight in dependence of the indicated IP daily doses of Foretinib. […]

[2] = tested on: experimental diabetic neuropathy; experiment: Lower extremity nerve histomorphology (sciatic and sural nerve) in STZ-diabetic mice; type: in vivo; conditions: 30 mg/kg oral daily, five weeks post-diabetes induction
Experimental: (§1) In total, 20 mice were injected with 100 mg/kg bodyweight of streptozotocin (STZ, […], Sigma Aldrich) in 0.1M citrate buffer (pH 4.5) on two consecutive days respectively, to induce diabetes type 1^27. Prior to the first injection and in weekly intervals thereafter, all animals were weighted and underwent tail prick blood sugar measurements using a clinical grade monitoring system (Contour One, Ascensia Diabetes Care, Mississauga, Ontario) as previously described. Mice were considered diabetic when blood glucose was at least 15 mmol/L (270 mg/dl). Prior to diabetes induction the mice were block randomized into experimental groups (n=10 Foretinib treatment, n=5 vehicle treatment, n=5 non-treated diabetic control). An additional 5 non-diabetic animals served as a healthy control. Foretinib treatments started 1-week post-diabetes induction. Foretinib was prepared fresh daily by dissolving 6 mg Foretinib in 1 ml of 1% (Hydroxypropyl)-methyl cellulose (09963, Sigma Aldrich) and 0.2% sodium dodecyl sulfate ([…], Sigma Aldrich) in sterile H2O. […] A custom-trained deep learning model based on the open-source software AxonDeepSeg^29 determined axon diameter and myelin sheath thickness and g-ratio for entire nerve cross sections.

[3] = tested on: experimental diabetic neuropathy; experiment: Three-dimensional assessment of cutaneous innervation (volumetric nerve fiber density) in STZ-diabetic mice; type: in vivo; conditions: 30 mg/kg oral daily; 5 weeks post-STZ; non-treated 44.9%, vehicle 37.8%
Experimental: as §1, with “Cutaneous nerve fibers were semiautomatically traced using batch processing with consistent fluorescence intensity thresholds across” for “A custom-trained deep learning model based on”, “entire data set. Volumetric nerve fiber density was” for “open-source software AxonDeepSeg^29”, “as total nerve fiber volume per skin tissue volume” for “axon diameter and myelin sheath thickness and g-ratio”, “an 830×830×200 μm region of interest.” for “entire nerve cross sections.”

Structure (SMILES): COc1cc2c(Oc3ccc(NC(=O)C4(C(=O)Nc5ccc(F)cc5)CC4)cc3F)ccnc2cc1OCCCN1CCOCC1 [Foretinib, N1-[3-Fluoro-4-({6-methoxy-7-[3-(morpholin-4-yl)propoxy]quinolin-4-yl}oxy)phenyl]-N′1-(4-fluorophenyl)cyclopropane-1,1-dicarboxamide]
- axonal growth after NGF withdrawal ([1]; 500 nM foretinib in center and one side compartment, 48 h, preliminary n=2): induced axonal growth, similarly to the NGF containing cultures; also recorded: greater axonal length of the neurons than neurons cultured with NGF
- cell body and axonal survival after NGF withdrawal ([1]; 500 nM foretinib, 48 hours post NGF withdrawal): supported cell bodies and axonal survival
- peripheral nerve histomorphology (axon diameter, myelin sheath thickness, g-ratio) [2]: did not affect peripheral nerve histomorphology
- cutaneous nerve fiber density as % of non-diabetic reference [3]: 67.3%
